{"source": "patent US20260199214A1", "about": "“Personal Care Compositions And Methods For The Same” (Colgate-Palmolive Company, priority 2019, published 2026)", "tested_on": "neonatal human epidermal keratinocytes (HEKn)", "test": "Intracellular ROS by fluorescence microscopy in keratinocytes exposed to urban dust, with niacinamide and/or FSO (Example 2)", "format": "cell-based", "details": "HEKn cells, 200 μg/mL UD, about one hour exposure; niacinamide/FSO concentration per sample", "experimental": "An in vitro study was conducted to analyze the skin protecting benefits of varying concentrations of niacinamide and/or FSO. Particularly, an in vitro study was conducted to analyze the efficacy of varying concentrations of niacinamide and/or FSO in reducing and/or preventing ROS in and on the skin.\nTo conduct the study, neonatal human epidermal keratinocytes (HEKn) were grown in standard well plates having glass bottoms coated with collagen I. The HEKn were cultured in EpiLife™ media supplemented with human keratinocyte growth supplements (HKGS), both of which are commercially available from ThermoFisher Scientific of Waltham, MA. Stock solutions of FSO, niacinamide, and urban dust (UD) were prepared for the treatment of the keratinocytes. It should be appreciated that the UD is representative of particulate matter (PM) pollution.\nThe presence or amount of intracellular reactive oxygen species (ROS) was measured using fluorescence microscopy. […] After exposure to the oxidative stress detection reagent and the FSO, niacinamide, and/or UD, the keratinocytes were washed twice with a wash buffer and imaged via fluorescence in the wash buffer. Live adherent cells were imaged using GFP excitation/emission filters, and the ROS levels were quantified from raw images using ImageJ software.", "data": [{"smiles": "NC(=O)c1cccnc1", "note": "[Sample 14, niacinamide]", "values": [{"measurement": "ROS Levels (%) Relative to UD Alone", "result": "−3.89", "unit": "%"}]}, {"smiles": "NC(=O)c1cccnc1", "note": "[Sample 13, niacinamide]", "values": [{"measurement": "ROS Levels (%) Relative to UD Alone", "result": "−10.79", "unit": "%"}]}]}
